From US20030185878A1, “Process for producing phospholipid-containing drug” (priority 2002, published 2003)

| melting point [°C] | Structure (SMILES) |
| --- | --- |
| 200 to 201 | Cn1ncc2c1-c1c(Oc3ccc(OCc4ccccc4)cc3)sc(C(N)=O)c1CC2 [compound 5, 8-(4-Benzyloxyphenoxy)-4,5-dihydro-1-methyl-1H-thieno[3,4-g]indazole-6-carboxamide] |
| 212 to 213 | Cn1ncc2c1-c1c(Oc3ccc(OC(F)(F)F)cc3)sc(C(N)=O)c1CC2 [compound 7, 4,5-Dihydro-1-methyl-8-(4-trifluoromethoxyphenoxy)-1H-thieno[3,4-g]indazole-6-carboxamide] |
| 203 to 205 | COc1ccc(Oc2sc(C(N)=O)c3c2-c2c(cnn2C)CC3)cc1 [compound 6, 4,5-Dihydro-1-methyl-8-(4-methoxyphenoxy)-1H-thieno[3,4-g]indazole-6-carboxamide] |
| 188 to 189 | Cn1ncc2c1-c1c(Oc3ccc(F)cc3)sc(C(N)=O)c1CC2 [compound 15, 4,5-Dihydro-1-methyl-8-(4-fluorophenoxy)-1H-thieno[3,4-g]indazole-6-carboxamide] |
| 249 to 250 | Cn1ncc2c1-c1c(Oc3ccc(OCc4ccncc4)cc3)sc(C(N)=O)c1CC2 [compound 14, 4,5-Dihydro-1-methyl-8-[4-(4-pyridylmethyloxy)phenoxy]-1H-thieno[3,4-g]indazole-6-carboxamide] |
| 190 to 191 | Cc1cccc(Oc2sc(C(N)=O)c3c2-c2c(cnn2CC(F)(F)F)CC3)c1C [compound 9, 4,5-Dihydro-8-(2,3-dimethylphenoxy)-1-(2,2,2-trifluoroethyl)-1H-thieno[3,4-g]indazole-6-carboxamide] |
| 204 to 205 | Cn1ncc2c1-c1c(Oc3ccc4c(c3)OCO4)sc(C(N)=O)c1CC2 [Reference Example 4, 4,5-Dihydro-1-methyl-8-(3,4-methylenedioxyphenoxy)-1H-thieno[3,4-g]indazole-6-carboxamide] |
